The source of these data is the supplement of paper PMC4932681.

Experiment [1] deals with BT-474 Tam1. Description: drug sensitivity score (DSS) (DSS (dimensionless)); higher = more sensitive; extreme values may be limits of the assay. The settings on record: 4-OH-tamoxifen in medium 1 µM; 72 h. The method, then: (§1)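 FIMM FO2B library drugs were tested at 5 concentrations (10,000-fold range) for 72 h, with CellTiter-Glo viability normalised to DMSO and benzethonium chloride controls. The Drug Sensitivity Score (DSS) is computed from the fitted logistic dose-response curve (area-based; 0 = inactive). Resistant lines and the 'in 1µM tamoxifen' arms were tested in 1 µM 4-OH-tamoxifen.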

The subject of experiment [2] is BT-474 Tam2. Described as above. As to conditions: 4-OH-tamoxifen in medium 1 µM; 72 h. On the procedure: as §1
Experiment [3] concerns BT-474. The description is as above. As to conditions: 72 h. The method, then: as §1
The test system of experiment [4] is MCF-7 Tam1. The description is as above. The settings on record: 4-OH-tamoxifen in medium 1 µM; 72 h. On the procedure:
as §1

In experiment [5] the test system is MCF-7. The experiment is described as above. As to conditions: 72 h. The method, then:
as §1

The subject of experiment [6] is T-47D Tam1. The experiment is described as above. As to conditions: 4-OH-tamoxifen in medium 1 µM; 72 h. The method, then:
as §1

Experiment [7] has as its system T-47D Tam2. Described as above. The settings on record: 4-OH-tamoxifen in medium 1 µM; 72 h. On the procedure: as §1
For experiment [8], the system named is T-47D. Described as above. The settings on record: 72 h. The method, then:
as §1

Experiment [9] has as its system ZR-75-1 Tam1. The description is as above. The settings on record: 4-OH-tamoxifen in medium 1 µM; 72 h. On the procedure:
as §1

Experiment [10] relates to ZR-75-1 Tam2. Described as above. As to conditions: 4-OH-tamoxifen in medium 1 µM; 72 h. On the procedure: as §1
Experiment [11] deals with ZR-75-1. Described as above. As to conditions: 72 h. On the procedure: as §1
Experiment [12] has as its system BT-474 Tam1. Description: relative IC50 (midpoint of fitted logistic curve, plateau may be below 50% inhibition; CellTiter-Glo viability); higher = less potent. As to conditions: 4-OH-tamoxifen in medium 1 µM; 72 h. The method, then: (§2)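 FIMM FO2B library drugs were plated at 5 concentrations spanning a 10,000-fold range in 384-well plates. Cells were incubated for 72 h at 37 °C and viability was read by CellTiter-Glo, normalised to DMSO (0% inhibition) and 100 µM benzethonium chloride (100% inhibition). IC50 values come from logistic dose-response fits (Breeze pipeline). Tamoxifen-resistant lines and the 'in 1µM tamoxifen' parental arms were tested in medium with 1 µM 4-OH-tamoxifen.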
For orientation: Cellular ATP, detected with luciferase, serves as a proxy for viable cell number.

The subject of experiment [13] is BT-474 Tam2. The description is as above. The settings on record: 4-OH-tamoxifen in medium 1 µM; 72 h. The method, then:
as §2

The test system of experiment [14] is BT-474. The description is as above. The settings on record: 72 h. On the procedure: as §2
For experiment [15], the system named is MCF-7. Described as above. As to conditions: 4-OH-tamoxifen in medium 1 µM; 72 h. On the procedure: as §2
Experiment [16] deals with T-47D. The description is as above. As to conditions: 72 h. The method, then: as §2
In experiment [17] the test system is ZR-75-1. The experiment is described as above. As to conditions: 4-OH-tamoxifen in medium 0 µM; 72 h. The method, then:
as §2

Experiment [18] concerns BT-474 Tam1. Description: viability inhibition at highest dose (% inhibition); higher = more growth inhibition. The settings on record: 4-OH-tamoxifen in medium 1 µM; 72 h. The gist of the method:
(§3)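 After seeding into 384-well plates with library drugs at five concentrations spanning a 10 000-fold range, breast cancer cell lines and their resistant derivatives were incubated 72 h at 37 °C. Resistant lines received medium with 1 μM of the selecting drug. CellTiter-Glo signal was read on a PHERAstar and scaled to vehicle-only and positive controls. Drug sensitivity score, relative IC50 (the curve midpoint) and top-dose inhibition came from logistic fits run in the Breeze pipeline.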

The test system of experiment [19] is BT-474 Tam2. Described as above. As to conditions: 4-OH-tamoxifen in medium 1 µM; 72 h. The gist of the method:
as §3

Experiment [20] relates to BT-474. The description is as above. The settings on record: 72 h. The gist of the method:
as §3

For experiment [21], the system named is MCF-7 Tam1. The experiment is described as above. The settings on record: 4-OH-tamoxifen in medium 1 µM; 72 h. The gist of the method: as §3
In experiment [22] the test system is MCF-7. The description is as above. The settings on record: 72 h. The gist of the method:
as §3

Experiment [23] concerns T-47D Tam1. Described as above. The settings on record: 4-OH-tamoxifen in medium 1 µM; 72 h. A digest of the protocol: as §3
For experiment [24], the system named is T-47D Tam2. The description is as above. As to conditions: 4-OH-tamoxifen in medium 1 µM; 72 h. A digest of the protocol: as §3
The test system of experiment [25] is T-47D. The experiment is described as above. The settings on record: 72 h. A digest of the protocol:
as §3

Experiment [26] has as its system ZR-75-1 Tam1. The experiment is described as above. The settings on record: 4-OH-tamoxifen in medium 1 µM; 72 h. A digest of the protocol: as §3
Experiment [27] has as its system ZR-75-1 Tam2. Described as above. As to conditions: 4-OH-tamoxifen in medium 1 µM; 72 h. The gist of the method:
as §3

Experiment [28] relates to ZR-75-1. The description is as above. As to conditions: 72 h. The gist of the method: as §3

What is called relative IC50 is the concentration at the midpoint between the plateaus of the fitted inhibition curve. For `C=CC[C@@H]1/C=C(\C)C[C@H](C)C[C@H](OC)[C@H]2O[C@@](O)(C(=O)C(=O)N3CCCC[C@H]3C(=O)O[C@H](/C(C)=C/[C@@H]3CC[C@@H](O)[C@H](OC)C3)[C@H](C)[C@@H](O)CC1=O)[C@H](C)C[C@@H]2OC` [Tacrolimus (FK 506)], the drug sensitivity score with BT-474 Tam1 [1] came to 2.73; with BT-474 Tam2 [2] it was 2.96; with BT-474 [3] (4-OH-tamoxifen in medium 0 µM), 0; with BT-474 [3] (4-OH-tamoxifen in medium 1 µM), 1.97; in the experiment on MCF-7 Tam1 [4] it was 1.18; in the experiment with MCF-7 [5] (4-OH-tamoxifen in medium 0 µM), 0.766. Besides, the drug sensitivity score came to 3.51 in the experiment with MCF-7 [5] (4-OH-tamoxifen in medium 1 µM); 2.72 in the experiment on T-47D Tam1 [6]; 0.788 with T-47D Tam2 [7]; 0 in the experiment on T-47D [8] (4-OH-tamoxifen in medium 0 µM); 0 in the experiment with T-47D [8] (4-OH-tamoxifen in medium 1 µM); 0.336 with ZR-75-1 Tam1 [9]. For the same compound, the values for the drug sensitivity score with ZR-75-1 Tam2 [10], in the experiment on ZR-75-1 [11] (4-OH-tamoxifen in medium 0 µM) and in the experiment with ZR-75-1 [11] (4-OH-tamoxifen in medium 1 µM) were 0.01, 0 and 0.622, respectively. In addition, the “relative IC50” value is 2790 nM with BT-474 Tam1 [12]; 1410 nM with BT-474 Tam2 [13]; greater than 10000 nM in the experiment with BT-474 [14] (4-OH-tamoxifen in medium 0 µM); 3130 nM with BT-474 [14] (4-OH-tamoxifen in medium 1 µM); 1230 nM in the experiment with MCF-7 [15]; greater than 10000 nM with T-47D [16] (4-OH-tamoxifen in medium 0 µM). The “relative IC50” value in the experiment on T-47D [16] (4-OH-tamoxifen in medium 1 µM) and in the experiment with ZR-75-1 [17] was greater than 10000 nM throughout.
On to `CCC/C=C/C=C/C(=O)O[C@H]1/C(=C/C(=O)OC)C[C@H]2C[C@H]([C@@H](C)O)OC(=O)C[C@H](O)C[C@@H]3C[C@H](OC(C)=O)C(C)(C)[C@](O)(C[C@@H]4C/C(=C/C(=O)OC)C[C@H](/C=C/C(C)(C)[C@]1(O)O2)O4)O3` [Bryostatin 1] (drug 100 nM), for which the “viability inhibition at highest dose” value is -4.14 with BT-474 Tam1 [18]; -0.0992 in the experiment with BT-474 Tam2 [19]; 0.0548 in the experiment with BT-474 [20] (4-OH-tamoxifen in medium 0 µM); -6.89 with BT-474 [20] (4-OH-tamoxifen in medium 1 µM); 9.71 in the experiment on MCF-7 Tam1 [21]; 3.91 with MCF-7 [22] (4-OH-tamoxifen in medium 0 µM). Moreover, the “viability inhibition at highest dose” value was 14.2 in the experiment on MCF-7 [22] (4-OH-tamoxifen in medium 1 µM); 10.5 with T-47D Tam1 [23]; -13.3 in the experiment on T-47D Tam2 [24]; -5.82 in the experiment on T-47D [25] (4-OH-tamoxifen in medium 0 µM); -5.94 in the experiment with T-47D [25] (4-OH-tamoxifen in medium 1 µM); 10.2 in the experiment with ZR-75-1 Tam1 [26]. Besides, the figures for the “viability inhibition at highest dose” value in the experiment with ZR-75-1 Tam2 [27], with ZR-75-1 [28] (4-OH-tamoxifen in medium 0 µM) and in the experiment with ZR-75-1 [28] (4-OH-tamoxifen in medium 1 µM) were 3.49, 12.6 and -3.78, respectively.
Turning to `COc1cc(Nc2ncc3c(n2)-c2ccc(Cl)cc2C(c2c(F)cccc2OC)=NC3)ccc1C(=O)O` [Alisertib (MLN8237)] (drug 10000 nM), the “viability inhibition at highest dose” value with BT-474 Tam1 [18] was 13.6; with BT-474 Tam2 [19], -5.31; in the experiment on BT-474 [20] (4-OH-tamoxifen in medium 0 µM), 11.6; in the experiment on BT-474 [20] (4-OH-tamoxifen in medium 1 µM), 34.7; with MCF-7 Tam1 [21], 16.2; in the experiment with MCF-7 [22] (4-OH-tamoxifen in medium 0 µM), 17.2. Moreover, the “viability inhibition at highest dose” value in the experiment with MCF-7 [22] (4-OH-tamoxifen in medium 1 µM) is 7.64; with T-47D Tam1 [23], 38.9; in the experiment on T-47D Tam2 [24] it was 41; in the experiment with T-47D [25] (4-OH-tamoxifen in medium 0 µM), 27.3; in the experiment on T-47D [25] (4-OH-tamoxifen in medium 1 µM), 28.5; with ZR-75-1 Tam1 [26], -1.42. In addition, the “viability inhibition at highest dose” value in the experiment on ZR-75-1 Tam2 [27] was 4.01; in the experiment on ZR-75-1 [28] (4-OH-tamoxifen in medium 0 µM), -2.57; in the experiment with ZR-75-1 [28] (4-OH-tamoxifen in medium 1 µM) it was 9.24.
As to `Cc1c(N)nc([C@H](CC(N)=O)NC[C@H](N)C(N)=O)nc1C(=O)N[C@H](C(=O)N[C@H](C)[C@@H](O)[C@H](C)C(=O)N[C@H](C(=O)NCCc1nc(-c2nc(C(=O)NCCC[S+](C)C)cs2)cs1)[C@@H](C)O)[C@@H](OC1OC(CO)C(O)C(O)C1OC1OC(CO)C(O)C(OC(N)=O)C1O)c1cnc[nH]1` (stereo partly drawn) [Bleomycin] (drug 10000 nM), the “viability inhibition at highest dose” value with BT-474 Tam1 [18] was -4.38; in the experiment on BT-474 Tam2 [19], -5.24; in the experiment on BT-474 [20] (4-OH-tamoxifen in medium 0 µM), -15.7; in the experiment on BT-474 [20] (4-OH-tamoxifen in medium 1 µM), -12; in the experiment with MCF-7 Tam1 [21] it was -1.39; in the experiment on MCF-7 [22] (4-OH-tamoxifen in medium 0 µM), 12.6. The “viability inhibition at highest dose” value was 11.9 in the experiment on MCF-7 [22] (4-OH-tamoxifen in medium 1 µM); 23.9 in the experiment on T-47D Tam1 [23]; -17.7 with T-47D Tam2 [24]; 19.4 with T-47D [25] (4-OH-tamoxifen in medium 0 µM); -2.9 in the experiment on T-47D [25] (4-OH-tamoxifen in medium 1 µM); 12.1 in the experiment with ZR-75-1 Tam1 [26]. Moreover, the “viability inhibition at highest dose” value with ZR-75-1 Tam2 [27] is -0.492; in the experiment with ZR-75-1 [28] (4-OH-tamoxifen in medium 0 µM) it was 22.4; with ZR-75-1 [28] (4-OH-tamoxifen in medium 1 µM) it was 9.45.
`CN1CCc2c(c3ccccc3n2Cc2ccc(C(=O)NO)cc2)C1` [Tubastatin A] (drug 10000 nM): the “viability inhibition at highest dose” value in the experiment with BT-474 Tam1 [18] came out at 36.4; in the experiment on BT-474 Tam2 [19] it was 12.3; with BT-474 [20] (4-OH-tamoxifen in medium 0 µM), 8.77; with BT-474 [20] (4-OH-tamoxifen in medium 1 µM), 28.9; in the experiment on MCF-7 Tam1 [21] it was 2.15; with MCF-7 [22] (4-OH-tamoxifen in medium 0 µM), 10.2. Further, the “viability inhibition at highest dose” value was 17.2 in the experiment on MCF-7 [22] (4-OH-tamoxifen in medium 1 µM); 0.672 in the experiment with T-47D Tam1 [23]; 11.4 with T-47D Tam2 [24]; 2.46 in the experiment with T-47D [25] (4-OH-tamoxifen in medium 0 µM); 1.6 in the experiment with T-47D [25] (4-OH-tamoxifen in medium 1 µM); 16.1 in the experiment with ZR-75-1 Tam1 [26]. Further, the “viability inhibition at highest dose” value was found to be 12.3 with ZR-75-1 Tam2 [27], 17.4 in the experiment on ZR-75-1 [28] (4-OH-tamoxifen in medium 0 µM) and 18.8 with ZR-75-1 [28] (4-OH-tamoxifen in medium 1 µM).
